Laboratory results from patent US20260285850A1, “SUBSTITUTED OXAZOLIDINONES AND IMIDAZOLINONES AS HERBICIDES” (FMC CORPORATION, priority 2023, published 2026).

Experiments:
Format in all cases: in vivo
[1] = system: kochia (Bassia scoparia); test: Test A preemergence soil spray, visual injury rating 0-100; details: 10 days
Method in brief: (§1)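 Compound in a non-phytotoxic, surfactant-containing solvent is applied either as a directed soil spray before seedlings emerge or onto emerged plants 2-10 cm tall; pots hold a loam-sand blend. Plants grow 10 days under greenhouse conditions and are rated by eye against untreated controls (0 no effect, 100 complete control).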

[2] = system: blackgrass (Alopecurus myosuroides); test: as above; details: 10 days
Method in brief: as §1

[3] = system: green foxtail (Setaria viridis); test: as above; details: 10 days
Method in brief: as §1

[4] = system: ryegrass, Italian (italian ryegrass, Lolium multiflorum); test: as above; details: 10 days
Method in brief: as §1

[5] = system: soybean (Glycine max); test: as above; details: 10 days
Method in brief: as §1

[6] = system: wheat (Triticum aestivum); test: as above; details: 10 days
Method in brief: as §1

[7] = system: oat, wild (wild oat, Avena fatua); test: as above; details: 10 days
Method in brief: as §1

[8] = system: barnyardgrass (Echinochloa crus-galli); test: as above; details: 10 days
Method in brief: as §1

[9] = system: palmer (palmer amaranth, palmer pigweed, Amaranthus palmeri); test: as above; details: 10 days
Method in brief: as §1

[10] = system: corn (Zea mays); test: as above; details: 10 days
Method in brief: as §1

[11] = system: ragweed (common ragweed, Ambrosia artemisiifolia); test: as above; details: 10 days
Method in brief: as §1

[12] = system: kochia (Bassia scoparia); test: Test A postemergence application, visual injury rating 0-100
Method in brief: as §1

[13] = system: blackgrass (Alopecurus myosuroides); test: as above
Method in brief: as §1

[14] = system: green foxtail (Setaria viridis); test: as above
Method in brief: as §1

[15] = system: ryegrass, Italian (italian ryegrass, Lolium multiflorum); test: as above
Method in brief: as §1

[16] = system: soybean (Glycine max); test: as above
Method in brief: as §1

[17] = system: galium (catchweed bedstraw, Galium aparine); test: as above
Method in brief: as §1

[18] = system: horseweed (Erigeron canadensis); test: as above
Method in brief: as §1

[19] = system: wheat (Triticum aestivum); test: as above
Method in brief: as §1

[20] = system: oat, wild (wild oat, Avena fatua); test: as above
Method in brief: as §1

[21] = system: barnyardgrass (Echinochloa crus-galli); test: as above
Method in brief: as §1

[22] = system: palmer (palmer amaranth, palmer pigweed, Amaranthus palmeri); test: as above
Method in brief: as §1

[23] = system: corn (Zea mays); test: as above
Method in brief: as §1

[24] = system: ragweed (common ragweed, Ambrosia artemisiifolia); test: as above
Method in brief: as §1

[25] = system: barnyardgrass (Echinochloa crusgalli); test: Test B flooded paddy test, visual plant response rating 0-100; details: 250 g ai/ha, Flood, applied to paddy water, evaluated after 13 days
Method in brief: (§2)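 Greenhouse, 13 d. Seedlings at 2-leaf stage, pots flooded to 3 cm, compound delivered into floodwater, water level held constant. Evaluated visually relative to controls.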

[26] = system: sedge, umbrella (small-flower umbrella sedge, Cyperus difformis); test: as above; details: 250 g ai/ha, Flood, applied to paddy water, evaluated after 13 days
Method in brief: as §2

[27] = system: rice (Oryza sativa); test: as above; details: 250 g ai/ha, Flood, applied to paddy water, evaluated after 13 days
Method in brief: as §2

[28] = system: ducksalad (Heteranthera limosa); test: as above; details: 250 g ai/ha, Flood, applied to paddy water, evaluated after 13 days
Method in brief: as §2

[29] = 62 g ai/ha, 0 = no effect, 100 = complete control
[30] = 62 g ai/ha, postemergence, 10 days, 0 = no effect, 100 = complete control
[31] = Postemergence, 16 g ai/ha, greenhouse 10 days, 0 no effect, 100 complete control

## CCOC(=O)C1CC(NC(=O)C2(C)CN(c3cc(F)cc(F)c3)C(=O)O2)C1 (stereo not shown) [Compound 125]
[1]; 16 g ai/ha, 0 to 100 scale
  Kochia plant response rating: 0
[1]; [29]
  Kochia plant response rating (0-100): 90
[2]; 16 g ai/ha, 0 to 100 scale
  Blackgrass plant response rating: 50
[2]; [29]
  Blackgrass plant response rating (0-100): 90
[3]; 16 g ai/ha, 0 to 100 scale
  Foxtail, Green plant response rating: 10
[3]; [29]
  Foxtail, Green plant response rating (0-100): 90
[4]; 16 g ai/ha, 0 to 100 scale
  Ryegrass, Italian plant response rating: 0
[4]; [29]
  Ryegrass, Italian plant response rating (0-100): 90
[5]; 16 g ai/ha, 0 to 100 scale
  Soybean plant response rating: 10
[5]; [29]
  Soybean plant response rating (0-100): 0
[6]; 16 g ai/ha, 0 to 100 scale
  Wheat plant response rating: 30
[6]; [29]
  Wheat plant response rating (0-100): 60
[7]; 16 g ai/ha, 0 to 100 scale
  Oat, Wild plant response rating: 90
[7]; [29]
  Oat, Wild plant response rating (0-100): 90
[8]; 16 g ai/ha, 0 to 100 scale
  Barnyardgrass plant response rating: 0
[8]; [29]
  Barnyardgrass plant response rating (0-100): 50
[9]; 16 g ai/ha, 0 to 100 scale
  Pigweed, Palmer plant response rating: 20
[9]; [29]
  Pigweed, Palmer plant response rating (0-100): 50
[10]; 16 g ai/ha, 0 to 100 scale
  Corn plant response rating: 0
[10]; [29]
  Corn plant response rating (0-100): 90
[11]; 16 g ai/ha, 0 to 100 scale
  Ragweed plant response rating: 0
[11]; [29]
  Ragweed plant response rating (0-100): 20
[12]; [30]
  Kochia plant response rating (0-100): 80
[12]; [31]
  Kochia plant response rating (0 to 100 scale): 30
[13]; [30]
  Blackgrass plant response rating (0-100): 90
[13]; [31]
  Blackgrass plant response rating (0 to 100 scale): 90
[14]; [30]
  Foxtail, Green plant response rating (0-100): 90
[14]; [31]
  Foxtail, Green plant response rating (0 to 100 scale): 80
[15]; [30]
  Ryegrass, Italian plant response rating (0-100): 70
[15]; [31]
  Ryegrass, Italian plant response rating (0 to 100 scale): 20
[16]; [30]
  Soybean plant response rating (0-100): 70
[16]; [31]
  Soybean plant response rating (0 to 100 scale): 50
[17]; [30]
  Galium plant response rating (0-100): 60
[17]; [31]
  Galium plant response rating (0 to 100 scale): 30
[18]; [30]
  Horseweed plant response rating (0-100): 20
[18]; [31]
  Horseweed plant response rating (0 to 100 scale): 0
[19]; [30]
  Wheat plant response rating (0-100): 90
[19]; [31]
  Wheat plant response rating (0 to 100 scale): 80
[20]; [30]
  Oat, Wild plant response rating (0-100): 90
[20]; [31]
  Oat, Wild plant response rating (0 to 100 scale): 50
[21]; [30]
  Barnyardgrass plant response rating (0-100): 100
[21]; [31]
  Barnyardgrass plant response rating (0 to 100 scale): 60
[22]; [30]
  Pigweed, Palmer plant response rating (0-100): 70
[22]; [31]
  Pigweed, Palmer plant response rating (0 to 100 scale): 10
[23]; [30]
  Corn plant response rating (0-100): 100
[23]; [31]
  Corn plant response rating (0 to 100 scale): 90
[24]; [30]
  Ragweed plant response rating (0-100): 50
[24]; [31]
  Ragweed plant response rating (0 to 100 scale): 20
[25]
  Plant response rating, Barnyardgrass (0 to 100 scale, 0 is no effect and 100 is complete control): 0
[26]
  Plant response rating, Sedge, Umbrella (0 to 100 scale, 0 is no effect and 100 is complete control): 0
[27]
  Plant response rating, Rice (0 to 100 scale, 0 is no effect and 100 is complete control): 0
[28]
  Plant response rating, Ducksalad (0 to 100 scale, 0 is no effect and 100 is complete control): 0
